Measurements from PMC8850458, “The AUTOTAC chemical biology platform for targeted protein degradation via the autophagy-lysosome system” (Nature Communications, 2022).
pIC50: −log10 of the molar value. Several values for one entry are separate records, joined by “and”; a condition that tells them apart may be missing. Identical values can stand only once.

Assays:
[1] = system: RFP-GFP-hTauP301L pre-formed inclusion bodies; assay: ICC of mRFP-GFP-hTauP301L inclusion bodies (puncta, GFP/RFP ratio) in HeLa cells; type: cell-based; details: Fig. S6i, PBA-1105 given with O.A.
Method: Cells were cultured on coverslips coated with poly-L-lysine (Sigma) to observe cellular localization of proteins. Using 4% paraformaldehyde in PBS (pH 7.4), the cells were fixed for 15 min at room temperature and washed three times for 5 min with PBS. After fixing, the cells were permeabilized with 0.5% Triton X-100 in PBS solution for 15 min and washed three times with PBS for 5 min. The cells were blocked containing 2% BSA in PBS solution for 1 h at room temperature. Subsequently, the cells were incubated with primary antibody diluted in 2% BSA/PBS solution overnight at 4 °C, followed by washing the cells three times for 10 min with PBS and incubated with Alexa Fluor-conjugated secondary antibody diluted in 2% BSA/PBS for 30 min at room temperature. Using a DAPI-containing mounting medium (Vector Laboratories), the coverslips were mounted on glass slides. Confocal images were taken by laser scanning confocal microscope 510 Meta (Zeiss) and analyzed by Zeiss LSM Image Browser (ver. 4.2.0.121). […] Quantification results are shown as mean ± S.D. or S.E.M. of three independent experiments […]
Supplementary Fig. 6. […]
(0.1 μM, 24 h). (h) ICC in HeLa cells transiently expressing mRFP-GFP-hTauP301L and treated with okadaic acid (15 nM, 24 h) prior to the presence or absence of PBA-1105 (100 nM, […]
24 h). Scale bar, 10 µm. (i) Quantification of h for punctate formation and GFP/RFP ratio (n=3 biologically independent experiments each counting 50 cells and 10 puncta within one image).
Data are presented as mean values ± SD for aggregate formation and as mean values ± SEM […]
for GFP/RFP ratio. […]
(1 µM, 24 h) or negative control. P-values (from a two-sided unpaired t-test): **P < 0.00662 (for tau aggregate formation), **P < 0.00779 (for GFP/RFP ratio). Source data are provided

[2] = target: tauP301L (Homo sapiens, UniProt P10636, P618L); assay: RIPA insoluble/soluble fractionation of brains of hTauP301L-BiFC mice, human tau; details: for AVG (%) Insoluble hTau / AVG (%) Soluble hTau: control 100
Chain of tauP301L (P10636 1-441 isoform P10636-8 P301L): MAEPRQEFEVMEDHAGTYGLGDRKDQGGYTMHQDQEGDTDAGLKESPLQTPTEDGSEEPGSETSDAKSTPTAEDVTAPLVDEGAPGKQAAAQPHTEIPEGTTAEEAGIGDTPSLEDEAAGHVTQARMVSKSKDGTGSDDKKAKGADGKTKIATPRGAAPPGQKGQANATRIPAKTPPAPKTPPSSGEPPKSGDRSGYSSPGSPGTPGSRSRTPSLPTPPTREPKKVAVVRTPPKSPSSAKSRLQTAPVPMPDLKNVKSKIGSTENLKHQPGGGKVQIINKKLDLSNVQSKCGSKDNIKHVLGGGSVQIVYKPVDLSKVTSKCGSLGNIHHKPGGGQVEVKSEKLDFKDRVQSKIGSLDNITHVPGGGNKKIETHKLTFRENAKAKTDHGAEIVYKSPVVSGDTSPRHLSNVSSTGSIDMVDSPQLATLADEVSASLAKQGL

[3] = target: T1, wild-type desmin (Homo sapiens, UniProt P17661); assay: WB degradation of wild-type desmin in HeLa cells; type: cell-based; details: exogenously expressed
T1 construct: expressed in transfected cells; host or cells: HeLa, transient
T1 sequence (P17661 whole entry): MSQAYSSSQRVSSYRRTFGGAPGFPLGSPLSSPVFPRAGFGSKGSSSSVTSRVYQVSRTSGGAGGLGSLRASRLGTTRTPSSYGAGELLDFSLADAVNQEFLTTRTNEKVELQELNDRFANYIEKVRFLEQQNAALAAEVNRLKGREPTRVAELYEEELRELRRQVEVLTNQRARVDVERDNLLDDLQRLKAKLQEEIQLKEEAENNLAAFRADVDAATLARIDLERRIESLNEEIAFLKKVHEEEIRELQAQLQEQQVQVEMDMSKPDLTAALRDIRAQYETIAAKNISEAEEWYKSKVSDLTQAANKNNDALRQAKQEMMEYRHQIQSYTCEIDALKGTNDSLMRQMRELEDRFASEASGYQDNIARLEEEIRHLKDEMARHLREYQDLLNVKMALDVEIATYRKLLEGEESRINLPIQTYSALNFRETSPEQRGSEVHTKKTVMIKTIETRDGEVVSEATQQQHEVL
Method: Adherent cells were washed with phosphate-buffered saline (PBS) and cell pellets were lysed in SDS-based sample buffer (277.8 mM Tris-HCI, pH 6.8, 4.4% LDS, 44.4% (v/v) glycerol) containing beta-mercaptoethanol. Alternatively, cell pellets or protein supernatants were lysed in 5X Laemmli sample buffer. Whole-cell lysates were separated using SDS-PAGE, and transferred onto polyvinyllidene difluoride membranes at 100 V for 2 h at 4 °C. The membrane was incubated with a blocking solution consisting 4% skim milk in PBS solution for 30 min at room temperature and incubated with primary antibodies overnight, followed by incubation with host-specific HRP-conjugated secondary antibodies (1:10000 dilution). For signal detection, the membrane was developed with a mixture of ECL solution (Thermo Fisher Scientific) using X-ray films. Densitometry of developed bands was measured and analyzed with ImageJ (NIH, Bethesda).
Supplementary Fig. 5. AUTOTACs selectively target pathological aggregation-prone proteins for autophagic degradation. (a) WB in HEK293T cells treated with PBA-1105 (1 μM) and MG132 (1 μM, 24 h) at the indicated time points. (b) ICC of HeLa cells treated with the indicated compounds (1 μM, 24 h). Scale bar, 10 μm. (c) WB in HEK293T cells treated with PBA-1105 (500 nM, 24 h) and MG132 (1 μM, 24 h) under siRNA-mediated knockdown of p62 or ATG7 (20 nM, 48 h). (d) ICC in HeLa cells transiently expressing WIPI2-GFP and treated with Anle138b-F105 (1 μM, 24 h). Scale bar, 10 μm. (e) ICC in HeLa cells treated with […]
nM, 24 h). (g, h) WB in HeLa cells transiently expressing wild type or mutant (L385P) desmin-flag with LacZ-myc and treated with PBA-1105, PBA-1105b or Anle138b-F105 at the […]

[4] = system: AR^+LC3^+ autophagic membranes; assay: ICC of AR-LC3 co-localization in LNCaP cells; type: cell-based; details: 2.5 µM, 24 h
Method: Cells were cultured on coverslips coated with poly-L-lysine (Sigma) to observe cellular localization of proteins. Using 4% paraformaldehyde in PBS (pH 7.4), the cells were fixed for 15 min at room temperature and washed three times for 5 min with PBS. After fixing, the cells were permeabilized with 0.5% Triton X-100 in PBS solution for 15 min and washed three times with PBS for 5 min. The cells were blocked containing 2% BSA in PBS solution for 1 h at room temperature. Subsequently, the cells were incubated with primary antibody diluted in 2% BSA/PBS solution overnight at 4 °C, followed by washing the cells three times for 10 min with PBS and incubated with Alexa Fluor-conjugated secondary antibody diluted in 2% BSA/PBS for 30 min at room temperature. Using a DAPI-containing mounting medium (Vector Laboratories), the coverslips were mounted on glass slides. Confocal images were taken by laser scanning confocal microscope 510 Meta (Zeiss) and analyzed by Zeiss LSM Image Browser (ver. 4.2.0.121). […] Quantification results are shown as mean ± S.D. or S.E.M. of three independent experiments

[5] = system: LNCaP cells; assay: WST-based cell viability assay in LNCaP cells; details: LNcaP, duplicates; for WST assay raw reading: listed as Vinclo.-2204
[6] = WST-based cell viability assay in LNCaP cells; details: human, LNCaP cells
[7] = WST assay viability relative to con = 100, LNcaP, duplicates
[8] = WST assay viability, AVG %, LNcaP

For O=C(CCCc1ccccc1)NCCOCCOCCOCCNCc1ccc(OCc2ccccc2)c(OCc2ccccc2)c1 [PBA-1105], the “AVG GFP/RFP ratio per puncta, total AVG” value ([1]; con 1.00467) was 0.4057, the “AVG GFP/RFP ratio per puncta, relative % AVG” value ([1]; con 100) was 40.3782% and the “AVG GFP/RFP ratio per puncta, AVG per experiment” value ([1]; n=1 to n=3) was 0.551 and 0.37 and 0.296. The “puncta formation of cells with AVG RFP/GFP ratio < 0.5, AVG of cells per 50 cells” value ([1]; RFP-GFP-TauP301L, con 4.33333) was 30.3333, the “puncta formation of cells with AVG RFP/GFP ratio < 0.5, percentage AVG” value ([1]; RFP-GFP-TauP301L, con 8.66667) was 60.6667 and the “puncta formation of cells with AVG RFP/GFP ratio < 0.5, cells counted per 50 cells” value ([1]; RFP-GFP-TauP301L, single experiments) was 33 and 37 and 21. The “AVG (%) Insoluble hTau” value ([2]; 20 mg/kg) was 43.8995%, the “AVG (%) Soluble hTau” value ([2]; 20 mg/kg) was 87.1538% and the “AVG (%) Insoluble hTau” value ([2]; 50 mg/kg) was 10.5836%. For the same molecule, the “AVG (%) Soluble hTau” value ([2]; 50 mg/kg) was 66.7118%, the “soluble tau species in brain” value ([2]; hTauP301L-BiFC mice, i.p. 20 or 50 mg/kg) was “little if any reduction” and the “detergent-insoluble tauP301L in brain” value ([2]; hTauP301L-BiFC mice, i.p. 20 or 50 mg/kg, three times per week for one month) was “marked clearance”. The “degradation of wild-type desmin” value [3] was “not wild-type desmin”.

In the case of C=CC(C)(O)C(=O)N(C(=O)NCCOCCOCCNCC(O)COc1ccc(OCCc2ccccc2)c(OCCc2ccccc2)c1)c1cc(Cl)cc(Cl)c1 (centres unmarked) [VinclozolinM2-2204], the “AR-LC3 colocalization, AVG of cells of 50” value [4] was 40, the “AR-LC3 colocalization, percentage AVG” value [4] was 80% and the “AR-LC3 colocalization, cells of 50 cells counted” value ([4]; single experiments, listed as Vinclo.-2204) was 41 and 36 and 43. The “WST assay raw reading” value ([5]; 0.01uM) was 1.976 and 1.95, the “WST assay viability relative to con = 100” value ([5]; 0.01uM, listed as Vinclo.-2204, 0.01 µM) was 92.2257 and the “WST assay raw reading” value ([5]; 0.1uM) was 1.955 and 1.92. For the same molecule, the “WST assay viability relative to con = 100” value ([5]; 0.1uM, listed as Vinclo.-2204, 0.1 µM) was 90.7275, the “WST assay raw reading” value ([5]; 1uM) was 1.902 and 1.905 and the “WST assay viability relative to con = 100” value ([5]; 1uM, listed as Vinclo.-2204, 1 µM) was 89.9784. For the same molecule, the “WST assay raw reading” value ([5]; 10uM) was 0.595 and 0.848, the “WST assay viability relative to con = 100” value ([5]; 10uM, listed as Vinclo.-2204, 10 µM) was 37.1899 and the “WST assay raw reading” value ([5]; 50uM) was 0.14 and 0.144. The “WST assay viability relative to con = 100” value ([5]; 50uM, listed as Vinclo.-2204, 50 µM) was 2.031, the “WST assay raw reading” value ([5]; 100uM) was 0.164 and 0.166 and the “WST assay viability relative to con = 100” value ([5]; 100uM, listed as Vinclo.-2204, 100 µM) was 3.13. For the same molecule, the pIC50 [6] was 5.33, the viability at 0.01 µM [6, 7] was 93.5% and the viability at 0.1 µM [6, 7] was 92.5%. For the same molecule, the viability at 1 µM [6, 7] was 89.8%, the viability at 10 µM [6, 7] was 24.6% and the viability at 50 µM [6, 7] was 1.83%. The viability at 100 µM [6, 7] was 3.03%, the viability at 0.01 µM [6, 8] was 92.9% and the viability at 0.1 µM [6, 8] was 91.6%. It also gave a viability at 1 µM [6, 8] of 89.9%, a viability at 10 µM [6, 8] of 30.9% and a viability at 50 µM [6, 8] of 1.93%. It also gave a viability at 100 µM [6, 8] of 3.08%.
